Data: ChEMBL document CHEMBL4665764, “Synthesis and Biological Evaluation of Celastrol Derivatives as Potential Immunosuppressive Agents” (J Nat Prod, 2020)

Legend:
[1] = Antiproliferative activity against Con A-induced BALB/c mouse T cell after 48 hrs by CCK8 assay; type: functional, tissue-based, T cell line
[2] = Cytotoxicity against BALB/c mouse T cell assessed as reduction in cell viability after 48 hrs by CCK8 assay; type: tissue-based, T cell line; settings: BALB/c mouse T cells
[3] = Selectivity index, ratio of CC50 for cytotoxicity against BALB/c mouse T cell to IC50 for antiproliferative activity against Con A-induced BALB/c mouse T cell; parameters: species or system T cell line

Row | Structure (SMILES) | IC50 [1] [nM] | CC50 at 48 h [2] [nM] | Ratio CC50/IC50 [3]
1 | CC1=C(O)C(=O)C=C2C1=CC=C1[C@@]2(C)CC[C@@]2(C)[C@@H]3C[C@](C)(C(=O)OCCBr)CC[C@]3(C)CC[C@]12C | 721 | 1100 | 1.6
2 | CCCCNC(=O)[C@]1(C)CC[C@]2(C)CC[C@]3(C)C4=CC=C5C(=CC(=O)C(O)=C5C)[C@]4(C)CC[C@@]3(C)[C@@H]2C1 | 63 | 1200 | 19.3
3 | C#CCOC(=O)[C@]1(C)CC[C@]2(C)CC[C@]3(C)C4=C[C@@H](c5c[nH]c6ccc(Cl)cc56)c5c(cc(OC(C)=O)c(OC(C)=O)c5C)[C@]4(C)CC[C@@]3(C)[C@@H]2C1 | ≥ 10000 | ≥ 10000 | –
4 | CC1=C(O)C(=O)C=C2C1=CC=C1[C@@]2(C)CC[C@@]2(C)[C@@H]3C[C@](C)(C(=O)OCc4ccccc4)CC[C@]3(C)CC[C@]12C | 1060 | 1100 | 1
5 | C#CCOC(=O)[C@]1(C)CC[C@]2(C)CC[C@]3(C)C4=C[C@@H](c5c[nH]c6c(C)cccc56)c5c(cc(OC(C)=O)c(OC(C)=O)c5C)[C@]4(C)CC[C@@]3(C)[C@@H]2C1 | ≥ 10000 | ≥ 10000 | –
6 | CCCNC(=O)[C@]1(C)CC[C@]2(C)CC[C@]3(C)C4=CC=C5C(=CC(=O)C(O)=C5C)[C@]4(C)CC[C@@]3(C)[C@@H]2C1 | 64 | 1100 | 16.5
7 | C#CCOC(=O)[C@]1(C)CC[C@]2(C)CC[C@]3(C)C4=CC=C5C(=CC(=O)C(O)=C5C)[C@]4(C)CC[C@@]3(C)[C@@H]2C1 | 1120 | 1400 | 1.3
8 | C#CCOC(=O)[C@]1(C)CC[C@]2(C)CC[C@]3(C)C4=C[C@@H](c5c[nH]c6ccc(Br)cc56)c5c(cc(OC(C)=O)c(OC(C)=O)c5C)[C@]4(C)CC[C@@]3(C)[C@@H]2C1 | ≥ 10000 | ≥ 10000 | –
9 | CCNC(=O)[C@]1(C)CC[C@]2(C)CC[C@]3(C)C4=CC=C5C(=CC(=O)C(O)=C5C)[C@]4(C)CC[C@@]3(C)[C@@H]2C1 | 31 | 1100 | 34.6
10 | CC1=C(O)C(=O)C=C2C1=CC=C1[C@@]2(C)CC[C@@]2(C)[C@@H]3C[C@](C)(C(=O)OCc4ccccc4Br)CC[C@]3(C)CC[C@]12C | 1550 | 1800 | 1.1
11 | CC1=C(O)C(=O)C=C2C1=CC=C1[C@@]2(C)CC[C@@]2(C)[C@@H]3C[C@](C)(C(=O)NCCN(C)C)CC[C@]3(C)CC[C@]12C | 225 | 1200 | 5.5
12 | C#CCOC(=O)[C@]1(C)CC[C@]2(C)CC[C@]3(C)C4=C[C@@H](c5c[nH]c6cc(F)ccc56)c5c(cc(OC(C)=O)c(OC(C)=O)c5C)[C@]4(C)CC[C@@]3(C)[C@@H]2C1 | ≥ 10000 | ≥ 10000 | –
13 | CCCCOC(=O)[C@]1(C)CC[C@]2(C)CC[C@]3(C)C4=CC=C5C(=CC(=O)C(O)=C5C)[C@]4(C)CC[C@@]3(C)[C@@H]2C1 | 739 | 900 | 1.2
14 | COC(=O)[C@H](Cc1ccc(O)cc1)NC(=O)[C@]1(C)CC[C@]2(C)CC[C@]3(C)C4=CC=C5C(=CC(=O)C(O)=C5C)[C@]4(C)CC[C@@]3(C)[C@@H]2C1 | 205 | 1400 | 6.9
15 | C#CCOC(=O)[C@]1(C)CC[C@]2(C)CC[C@]3(C)C4=C[C@@H](c5c[nH]c6cc(Cl)ccc56)c5c(cc(OC(C)=O)c(OC(C)=O)c5C)[C@]4(C)CC[C@@]3(C)[C@@H]2C1 | ≥ 10000 | 4100 | –
16 | C#CCOC(=O)[C@]1(C)CC[C@]2(C)CC[C@]3(C)C4=C[C@@H](c5c[nH]c6ccccc56)c5c(cc(OC(C)=O)c(OC(C)=O)c5C)[C@]4(C)CC[C@@]3(C)[C@@H]2C1 | ≥ 10000 | ≥ 10000 | –
17 | CC1=C(O)C(=O)C=C2C1=CC=C1[C@@]2(C)CC[C@@]2(C)[C@@H]3C[C@](C)(C(=O)NCc4cccc(C)c4)CC[C@]3(C)CC[C@]12C | 294 | 1000 | 3.4
18 | COC(=O)[C@]1(C)CC[C@]2(C)CC[C@]3(C)C4=CC=C5C(=CC(=O)C(O)=C5C)[C@]4(C)CC[C@@]3(C)[C@@H]2C1 [PRISTIMERIN] | 1200 | 2400 | 2
19 | COCCCOC(=O)[C@]1(C)CC[C@]2(C)CC[C@]3(C)C4=CC=C5C(=CC(=O)C(O)=C5C)[C@]4(C)CC[C@@]3(C)[C@@H]2C1 | 994 | 1700 | 1.7
20 | CC1=C(O)C(=O)C=C2C1=CC=C1[C@@]2(C)CC[C@@]2(C)[C@@H]3C[C@](C)(C(=O)OCc4cccc(C)c4)CC[C@]3(C)CC[C@]12C | 1600 | 1900 | –
21 | C#CCOC(=O)[C@]1(C)CC[C@]2(C)CC[C@]3(C)C4=C[C@@H](c5c[nH]c6cc(OC)ccc56)c5c(cc(OC(C)=O)c(OC(C)=O)c5C)[C@]4(C)CC[C@@]3(C)[C@@H]2C1 | ≥ 10000 | 3000 | –

Row | Structure (SMILES) | IC50 [1] [nM] | CC50 at 48 h [2] [nM] | Ratio CC50/IC50 [3]
22 | CC1=C(O)C(=O)C=C2C1=CC=C1[C@@]2(C)CC[C@@]2(C)[C@@H]3C[C@](C)(C(=O)NCc4ccccc4)CC[C@]3(C)CC[C@]12C | 362 | 800 | 2.1
23 | C#CCNC(=O)[C@]1(C)CC[C@]2(C)CC[C@]3(C)C4=CC=C5C(=CC(=O)C(O)=C5C)[C@]4(C)CC[C@@]3(C)[C@@H]2C1 | 112 | 1400 | 16.4
24 | CC1=C(O)C(=O)C=C2C1=CC=C1[C@@]2(C)CC[C@@]2(C)[C@@H]3C[C@](C)(C(=O)O)CC[C@]3(C)CC[C@]12C [CELASTROL] | 83 | 100 | 1.5
25 | C#CCOC(=O)[C@]1(C)CC[C@]2(C)CC[C@]3(C)C4=C[C@@H](c5c[nH]c6ccc(OC)cc56)c5c(cc(OC(C)=O)c(OC(C)=O)c5C)[C@]4(C)CC[C@@]3(C)[C@@H]2C1 | ≥ 10000 | ≥ 10000 | –
26 | CC1=C(O)C(=O)C=C2C1=CC=C1[C@@]2(C)CC[C@@]2(C)[C@@H]3C[C@](C)(C(=O)N4CCCC4)CC[C@]3(C)CC[C@]12C | 323 | 1900 | 3.4
27 | CCOC(=O)[C@]1(C)CC[C@]2(C)CC[C@]3(C)C4=CC=C5C(=CC(=O)C(O)=C5C)[C@]4(C)CC[C@@]3(C)[C@@H]2C1 | 820 | 1400 | 1.3
28 | CC1=C(O)C(=O)C=C2C1=CC=C1[C@@]2(C)CC[C@@]2(C)[C@@H]3C[C@](C)(C(=O)OCc4ccc(F)cc4)CC[C@]3(C)CC[C@]12C | 1460 | 2000 | 1.4
29 | CC1=C(O)C(=O)C=C2C1=CC=C1[C@@]2(C)CC[C@@]2(C)[C@@H]3C[C@](C)(C(=O)OCc4ccccc4C)CC[C@]3(C)CC[C@]12C | 1040 | 1700 | 1.6
30 | C#CCOC(=O)[C@]1(C)CC[C@]2(C)CC[C@]3(C)C4=C[C@@H](c5c[nH]c6ccc(C)cc56)c5c(cc(OC(C)=O)c(OC(C)=O)c5C)[C@]4(C)CC[C@@]3(C)[C@@H]2C1 | ≥ 10000 | ≥ 10000 | –
31 | CC1=C(O)C(=O)C=C2C1=CC=C1[C@@]2(C)CC[C@@]2(C)[C@@H]3C[C@](C)(C(=O)NC(C)C)CC[C@]3(C)CC[C@]12C | 83 | 800 | 6.9
32 | CC1=C(O)C(=O)C=C2C1=CC=C1[C@@]2(C)CC[C@@]2(C)[C@@H]3C[C@](C)(C(=O)OCCCl)CC[C@]3(C)CC[C@]12C | 771 | 1100 | 1.4
33 | CC1=C(O)C(=O)C=C2C1=CC=C1[C@@]2(C)CC[C@@]2(C)[C@@H]3C[C@](C)(C(=O)On4nnc5ccccc54)CC[C@]3(C)CC[C@]12C | 1880 | 15100 | 8.1
34 | CCCOC(=O)[C@]1(C)CC[C@]2(C)CC[C@]3(C)C4=CC=C5C(=CC(=O)C(O)=C5C)[C@]4(C)CC[C@@]3(C)[C@@H]2C1 | 924 | 1200 | 1.3
35 | C=CCOC(=O)[C@]1(C)CC[C@]2(C)CC[C@]3(C)C4=CC=C5C(=CC(=O)C(O)=C5C)[C@]4(C)CC[C@@]3(C)[C@@H]2C1 | 1180 | 1300 | 1.1
36 | CC1=C(O)C(=O)C=C2C1=CC=C1[C@@]2(C)CC[C@@]2(C)[C@@H]3C[C@](C)(C(=O)OCc4cccc(Br)c4)CC[C@]3(C)CC[C@]12C | 1070 | 1800 | 1.7
37 | COCCOC(=O)[C@]1(C)CC[C@]2(C)CC[C@]3(C)C4=CC=C5C(=CC(=O)C(O)=C5C)[C@]4(C)CC[C@@]3(C)[C@@H]2C1 | 454 | 1300 | 2.8
38 | CC1=C(O)C(=O)C=C2C1=CC=C1[C@@]2(C)CC[C@@]2(C)[C@@H]3C[C@](C)(C(=O)NCc4ccccc4C)CC[C@]3(C)CC[C@]12C | 312 | 1100 | 3.6
39 | CC1=C(O)C(=O)C=C2C1=CC=C1[C@@]2(C)CC[C@@]2(C)[C@@H]3C[C@](C)(C(=O)OCCC(C)C)CC[C@]3(C)CC[C@]12C | 1090 | 1500 | 1.4
40 | CC1=C(O)C(=O)C=C2C1=CC=C1[C@@]2(C)CC[C@@]2(C)[C@@H]3C[C@](C)(C(=O)OCC4CCCCC4)CC[C@]3(C)CC[C@]12C | 1260 | 1300 | 1
41 | CC1=C(O)C(=O)C=C2C1=CC=C1[C@@]2(C)CC[C@@]2(C)[C@@H]3C[C@](C)(C(=O)OCc4ccc(C(F)(F)F)cc4)CC[C@]3(C)CC[C@]12C | 4870 | 6700 | 1.4
42 | C#CCOC(=O)[C@]1(C)CC[C@]2(C)CC[C@]3(C)C4=C[C@@H](c5c[nH]c6ccc(F)cc56)c5c(cc(OC(C)=O)c(OC(C)=O)c5C)[C@]4(C)CC[C@@]3(C)[C@@H]2C1 | ≥ 10000 | 5600 | –
